Assays:
Format in all cases: cell-based, human
T47D cells = assay: MTT antiproliferative assay, T47D; conditions: 72 h; for inhibition at 10 µM / inhibition at 30 µM: Homo sapiens; for inhibition at 10 µM: read-out: Growth inhibition, % ± SEM, 10 μM; for inhibition at 30 µM: read-out: Growth inhibition, % ± SEM, 30 μM
Description: (§1) The antiproliferative properties of the newly synthesized compounds (9–20) and their starting materials (4 and 5) were determined on a panel of human adherent cancer cell lines. MCF-7, MDA-MB-231 and T47D were isolated from breast cancers differing in biochemical background, while A2780 cells were isolated from ovarian cancer. HeLa and SiHa are cervical cancer cell lines positive for HPV-18 and HPV-16, respectively, while C33-A cervical cancer cells are negative for HPV. Moreover, two oropharyngeal cancer cell lines were also utilized: the HPV-negative UPCI-SCC-131 and HPV-16 positive UPCI-SCC-154. The cancer selectivity of compounds was tested on the non-cancerous mouse embryo fibroblast cell line NIH/3T3. All cell lines were purchased from European Collection of Cell Cultures (ECCAC, Salisbury, UK) exception for SiHa and C33-A (American Tissue Culture Collection, Manassas, VA, USA) and HN-SCC-131 and UPCI-SCC-154 (German Collection of Microorganisms and Cell Cultures GmbH, Braunschweig, Germany). Cells were cultivated in minimal essential medium supplemented with 10% fetal bovine serum, 1% non-essential amino acids and an antibiotic–antimycotic mixture. The medium of oropharyngeal cancer cells additionally contained 2.0 mM L-glutamine. All media and supplements were obtained from Lonza Group Ltd., Basel, Switzerland. Near-confluent cancer cells were seeded onto a 96-well microplate at a density of 5,000 cells/well, except for C33-A which were seeded at 10,000/well. After overnight standing, new medium containing the tested compounds at 10 and 30 µM final concentration was added. After incubation for 72 h at 37 °C in humidified air containing 5% CO2, the living cells were assayed by the addition of 20 μL of 5 mg/ml 3-(4,5-dimethylthiazol-2-yl)-2,5-diphenyltetrazolium bromide (MTT) solution. MTT was converted by intact mitochondrial reductase and precipitated as purple crystals during a 4-h contact period. The medium was next removed and the precipitated formazan crystals were dissolved in 100 μL of DMSO during a 60-min period of shaking at 37 ^оC.
(§2) All in vitro experiments were carried out twice with five parallels. Stock solutions of the tested substances (10 mM) were prepared in DMSO. […] Cisplatin (Ebewe Pharma GmbH, Unterach, Austria) was used as positive control.

MDA-MB-231 cells = assay: MTT antiproliferative assay, MDA-MB-231; conditions: for inhibition at 10 µM / inhibition at 30 µM: Homo sapiens, MDA-MB-231, 72 h, read-out: Growth inhibition, % ± SEM; for Growth inhibition; % ± SEM: 72 h
Description: as §1, §2

SiHa cells = assay: MTT antiproliferative assay, SiHa; conditions: 72 h; for inhibition at 10 µM / inhibition at 30 µM: Homo sapiens; for inhibition at 10 µM: read-out: Growth inhibition, % ± SEM, 10 μM; for inhibition at 30 µM: read-out: Growth inhibition, % ± SEM, 30 μM
Description: as §1, §2

UPCI-SCC-131 cells = assay: MTT antiproliferative assay, UPCI-SCC-131; conditions: 72 h, 72 h; for inhibition at 10 µM / inhibition at 30 µM: Homo sapiens, read-out: Growth inhibition, % ± SEM
Description: as §1, §2

C33-A cells = assay: MTT antiproliferative assay, C33-A; conditions: 72 h; for inhibition at 10 µM / inhibition at 30 µM: Homo sapiens, C-33-A; for inhibition at 10 µM: read-out: Growth inhibition, % ± SEM, C33-A, 10 μM; for inhibition at 30 µM: read-out: Growth inhibition, % ± SEM, C33-A, 30 μM; for Growth inhibition; % ± SEM: C33-A
Description: as §1, §2

UPCI-SCC-154 cells = assay: MTT antiproliferative assay, UPCI-SCC-154; conditions: 72 h, 72 h; for inhibition at 10 µM / inhibition at 30 µM: Homo sapiens, read-out: Growth inhibition, % ± SEM
Description: as §1, §2

A2780 cells = assay: MTT antiproliferative assay, A2780; conditions: 72 h; for inhibition at 10 µM / inhibition at 30 µM: Homo sapiens, A2780, 72 h, read-out: Growth inhibition, % ± SEM
Description: as §1, §2

MCF-7 cells = assay: MTT antiproliferative assay, MCF-7; conditions: 72 h; for inhibition at 10 µM / inhibition at 30 µM: Homo sapiens, MCF7, 72 h, read-out: Growth inhibition, % ± SEM
Description: as §1, §2

HeLa cells = assay: MTT antiproliferative assay, HeLa; conditions: 72 h; for inhibition at 10 µM / inhibition at 30 µM: Homo sapiens; for inhibition at 10 µM: read-out: Growth inhibition, % ± SEM, 10 μM; for inhibition at 30 µM: read-out: Growth inhibition, % ± SEM, 30 μM
Description: as §1, §2

Row | Structure (SMILES) | inhibition at 10 µM (T47D cells) | inhibition at 30 µM (T47D cells) | inhibition at 10 µM (MDA-MB-231 cells) | inhibition at 30 µM (MDA-MB-231 cells) | inhibition at 10 µM (SiHa cells) | inhibition at 30 µM (SiHa cells) | inhibition at 10 µM (UPCI-SCC-131 cells; UPCI-SCC-131, 10 μM) | inhibition at 30 µM (UPCI-SCC-131 cells; UPCI-SCC-131, 30 μM) | inhibition at 10 µM (C33-A cells) | inhibition at 30 µM (C33-A cells) | inhibition at 10 µM (UPCI-SCC-154 cells; UPCI-SCC-154, 10 μM) | inhibition at 30 µM (UPCI-SCC-154 cells; UPCI-SCC-154, 30 μM) | inhibition at 10 µM (A2780 cells; A2780, 10 μM) | inhibition at 30 µM (A2780 cells; A2780, 30 μM) | inhibition at 10 µM (MCF-7 cells; MCF-7, 10 μM) | inhibition at 30 µM (MCF-7 cells; MCF-7, 30 μM) | inhibition at 10 µM (HeLa cells) | inhibition at 30 µM (HeLa cells) | also measured
1 | COc1ccc2c(c1)CC[C@@H]1[C@@H]2CC[C@@]2(C)C(=O)[C@@H](CP(=O)(c3ccccc3)c3ccccc3)C[C@@H]12 [Compound 10, [(3-methoxy-17-oxo-13α-oestra-1,3,5(10)-trien-16β-yl)methyl]diphenylphosphine oxide] | < 20% | 61.1 ± 1.06% | < 20% | < 20% | < 20% | < 20% | 39.8 ± 1.36% | 72.9 ± 1.7% | 22 ± 1.84% | 27.2 ± 1.85% | < 20% | 24.3 ± 2.84% | < 20% | 64.2 ± 2.65% | < 20% | 35.9 ± 3.3% | < 20% | 21.5 ± 2.99% | –
2 | C[C@@]12CC[C@@H]3c4ccc(OCc5ccccc5)cc4CC[C@H]3[C@@H]1C[C@@H](CP(=O)(c1ccccc1)c1ccccc1)C2=O [Compound 11, [(3-benzyloxy-17-oxo-13α-oestra-1,3,5(10)-trien-16α-yl)methyl]diphenylphosphine oxide] | 24.7 ± 1.7% | 59 ± 1.38% | < 20% | < 20% | < 20% | 30.2 ± 2.99% | 20.9 ± 1.67% | 62.5 ± 1.4% | < 20% | 40.3 ± 0.95% | < 20% | 38.6 ± 2.6% | < 20% | 21.9 ± 2.63% | < 20% | 37.1 ± 0.72% | < 20% | 23.8 ± 2.11% | –
3 | Cc1ccc(P(=O)(C[C@@H]2C[C@H]3[C@@H]4CCc5cc(OCc6ccccc6)ccc5[C@H]4CC[C@@]3(C)C2=O)c2ccc(C)cc2)cc1 [Compound 15, [(3-benzyloxy-17-oxo-13α-oestra-1,3,5(10)-trien-16α-yl)methyl]di-p-tolylphosphine oxide] | 39.1 ± 2.01% | 58.5 ± 0.8% | < 20% | < 20% | < 20% | < 20% | 24.6 ± 1.39% | 60.2 ± 1.32% | < 20% | 26.9 ± 0.84% | < 20% | 34.7 ± 1.36% | < 20% | 49.4 ± 2.06% | < 20% | < 20% | < 20% | 27.4 ± 1.57% | –
4 | Cc1ccc(P(=O)(C[C@H]2C[C@H]3[C@@H]4CCc5cc(OCc6ccccc6)ccc5[C@H]4CC[C@@]3(C)C2=O)c2ccc(C)cc2)cc1 [Compound 16, [(3-benzyloxy-17-oxo-13α-oestra-1,3,5(10)-trien-16β-yl)methyl]di-p-tolylphosphine oxide] | 23.6 ± 1.22% | 64.5 ± 1.6% | < 20% | < 20% | < 20% | < 20% | 49.5 ± 2.27% | 67.4 ± 1.11% | < 20% | 59.1 ± 0.69% | < 20% | 31.6 ± 2.41% | < 20% | 67.3 ± 3.04% | < 20% | < 20% | < 20% | 31.8 ± 2.27% | –
5 | COc1ccc2c(c1)CCC1C2CCC2(C)C(=O)C(CP(=O)(c3ccc4ccccc4c3)c3ccc4ccccc4c3)CC12 (stereo not drawn) [Compound 17, [(3-methoxy-17-oxo-13α-oestra-1,3,5(10)-trien-16α-yl)methyl]di(naphtalen-2-yl)phosphine oxide] | < 20% | 27.1 ± 2.93% | < 20% | < 20% | < 20% | < 20% | 26.5 ± 1.7% | 45.3 ± 1.84% | < 20% | < 20% | < 20% | 20.3 ± 2.69% | < 20% | < 20% | < 20% | < 20% | < 20% | < 20% | –
6 | COc1ccc2c(c1)CCC1C2CCC2(C)C(=O)C(CP(=O)(c3ccc4ccccc4c3)c3ccc4ccccc4c3)CC12 (stereo not drawn) [Compound 18, [(3-methoxy-17-oxo-13α-oestra-1,3,5(10)-trien-16β-yl)methyl]di(naphtalen-2-yl)phosphine oxide] | – | – | – | – | – | – | – | – | – | – | – | – | – | – | – | – | – | – | Growth inhibition; % ± SEM (T47D cells; 10 μM): – (Inhibition values <20% are not presented.); Growth inhibition; % ± SEM (T47D cells; 30 μM): – (Inhibition values <20% are not presented.); Growth inhibition; % ± SEM (MDA-MB-231 cells; MDA-MB-231, 10 μM): – (Inhibition values <20% are not presented.); Growth inhibition; % ± SEM (MDA-MB-231 cells; MDA-MB-231, 30 μM): – (Inhibition values <20% are not presented.); Growth inhibition; % ± SEM (SiHa cells; 10 μM): – (Inhibition values <20% are not presented.); Growth inhibition; % ± SEM (SiHa cells; 30 μM): – (Inhibition values <20% are not presented.); Growth inhibition; % ± SEM (UPCI-SCC-131 cells; UPCI-SCC-131, 10 μM, 10 µM): 46.39 ± 1.19%; Growth inhibition; % ± SEM (UPCI-SCC-131 cells; UPCI-SCC-131, 30 μM, 30 µM): 64.55 ± 1.29%; Growth inhibition; % ± SEM (C33-A cells; 10 μM): – (Inhibition values <20% are not presented.); Growth inhibition; % ± SEM (C33-A cells; 30 μM): 20.25 ± 1.01%; Growth inhibition; % ± SEM (UPCI-SCC-154 cells; UPCI-SCC-154, 10 μM): – (Inhibition values <20% are not presented.); Growth inhibition; % ± SEM (UPCI-SCC-154 cells; UPCI-SCC-154, 30 μM, 30 µM): – (Inhibition values <20% are not presented.); Growth inhibition; % ± SEM (A2780 cells; A2780, 10 μM): – (Inhibition values <20% are not presented.); Growth inhibition; % ± SEM (A2780 cells; A2780, 30 μM): – (Inhibition values <20% are not presented.); Growth inhibition; % ± SEM (MCF-7 cells; MCF-7, 10 μM): – (Inhibition values <20% are not presented.); Growth inhibition; % ± SEM (MCF-7 cells; MCF-7, 30 μM): – (Inhibition values <20% are not presented.); Growth inhibition; % ± SEM (HeLa cells; 10 μM): – (Inhibition values <20% are not presented.); Growth inhibition; % ± SEM (HeLa cells; 30 μM): – (Inhibition values <20% are not presented.)
7 | CC12CCC3c4ccc(OCc5ccccc5)cc4CCC3C1CC(CP(=O)(c1ccc3ccccc3c1)c1ccc3ccccc3c1)C2=O (stereo not drawn) [Compound 19, [(3-benzyloxy-17-oxo-13α-oestra-1,3,5(10)-trien-16α-yl)methyl]di(naphtalen-2-yl)phosphine oxide] | 59.4 ± 2.44% | 62.4 ± 1.7% | < 20% | < 20% | 23.2 ± 1.36% | – | – | – | 28.1 ± 1.39% | 34.7 ± 1.7% | 34.3 ± 2.8% | – | < 20% | 28.5 ± 2.35% | 31.8 ± 2.47% | 40.6 ± 1.71% | 31 ± 1.11% | – | Growth inhibition; % ± SEM (SiHa cells; 30 μM): 40.30 ± 2.00%; Growth inhibition; % ± SEM (UPCI-SCC-131 cells; UPCI-SCC-131, 10 μM, 10 µM): – (Inhibition values <20% are not presented.); Growth inhibition; % ± SEM (UPCI-SCC-131 cells; UPCI-SCC-131, 30 μM, 30 µM): 40.98 ± 2.94%; Growth inhibition; % ± SEM (UPCI-SCC-154 cells; UPCI-SCC-154, 30 μM, 30 µM): 48.81 ± 2.15%; Growth inhibition; % ± SEM (HeLa cells; 30 μM): 48.89 ± 0.90%

Source: paper PMC8405091, “Microwave-assisted Phospha-Michael addition reactions in the 13α-oestrone series and in vitro antiproliferative properties” (Journal of Enzyme Inhibition and Medicinal Chemistry, 2021)
